Consider 32 molecules from ChEMBL document CHEMBL3988442, “University of Dundee, Small-Polar-MMV Screening Library” (2021).

The target in assay [1] is Polyketide synthase Pks13 (Mycobacterium tuberculosis (strain ATCC 25618 / H37Rv), UniProt I6X8D2). As to the kind of experiment: Mycobacterium tuberculosis Polyketide synthase 13 Thioesterase (PKS13). In kind it is functional.
The target in assay [2] is T1, Histidine--tRNA ligase (Trypanosoma cruzi (strain CL Brener), UniProt Q4DA54).
T1 sequence (Q4DA54 whole entry): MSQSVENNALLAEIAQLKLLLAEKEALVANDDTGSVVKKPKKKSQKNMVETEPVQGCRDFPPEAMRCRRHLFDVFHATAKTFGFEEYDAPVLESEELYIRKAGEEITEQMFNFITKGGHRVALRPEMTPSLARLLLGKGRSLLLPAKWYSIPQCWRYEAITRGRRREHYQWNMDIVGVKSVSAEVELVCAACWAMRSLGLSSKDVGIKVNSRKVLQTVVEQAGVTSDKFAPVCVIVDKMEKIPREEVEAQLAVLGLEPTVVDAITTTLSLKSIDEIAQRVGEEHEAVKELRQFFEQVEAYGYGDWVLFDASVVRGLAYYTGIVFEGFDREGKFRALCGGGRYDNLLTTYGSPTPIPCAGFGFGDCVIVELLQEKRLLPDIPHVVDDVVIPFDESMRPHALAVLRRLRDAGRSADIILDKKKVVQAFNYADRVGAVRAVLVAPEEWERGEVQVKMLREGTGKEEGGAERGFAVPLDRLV
In words: Trypanosoma cruzi histidyl tRNA synthetase (Tc-HisRS). The class given is functional.

Assay [3] deals with Lysine--tRNA ligase (Plasmodium falciparum (isolate 3D7), UniProt Q8IDJ8). In words: Pf-KRS-1 (Lysyl-RNA Synthetase-1, KRS-1, cytosolic KRS) from Plasmodium falciparum. Inhibitor assay, 384 well plate, luminescence read. The class given is functional.
Chain of Lysine--tRNA ligase (Q8IDJ8 whole entry): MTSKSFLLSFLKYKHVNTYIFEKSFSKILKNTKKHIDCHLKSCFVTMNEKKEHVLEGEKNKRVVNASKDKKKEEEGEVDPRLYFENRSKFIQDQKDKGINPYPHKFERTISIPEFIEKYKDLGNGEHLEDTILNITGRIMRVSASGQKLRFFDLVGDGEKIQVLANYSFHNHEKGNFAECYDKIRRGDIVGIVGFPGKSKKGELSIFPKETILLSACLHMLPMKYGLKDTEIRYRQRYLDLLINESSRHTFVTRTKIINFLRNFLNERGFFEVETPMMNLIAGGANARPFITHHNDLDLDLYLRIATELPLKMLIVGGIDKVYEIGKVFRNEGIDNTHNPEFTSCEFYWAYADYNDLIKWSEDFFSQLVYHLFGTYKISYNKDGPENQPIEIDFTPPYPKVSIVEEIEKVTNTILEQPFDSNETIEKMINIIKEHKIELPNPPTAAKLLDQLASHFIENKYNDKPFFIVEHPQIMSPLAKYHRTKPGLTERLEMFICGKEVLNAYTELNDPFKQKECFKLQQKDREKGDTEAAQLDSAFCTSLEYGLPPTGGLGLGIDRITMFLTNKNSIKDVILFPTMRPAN
The target in assay [4] is T2, Histidine--tRNA ligase (Leishmania infantum, UniProt A4I591).
T2 sequence (A4I591 whole entry): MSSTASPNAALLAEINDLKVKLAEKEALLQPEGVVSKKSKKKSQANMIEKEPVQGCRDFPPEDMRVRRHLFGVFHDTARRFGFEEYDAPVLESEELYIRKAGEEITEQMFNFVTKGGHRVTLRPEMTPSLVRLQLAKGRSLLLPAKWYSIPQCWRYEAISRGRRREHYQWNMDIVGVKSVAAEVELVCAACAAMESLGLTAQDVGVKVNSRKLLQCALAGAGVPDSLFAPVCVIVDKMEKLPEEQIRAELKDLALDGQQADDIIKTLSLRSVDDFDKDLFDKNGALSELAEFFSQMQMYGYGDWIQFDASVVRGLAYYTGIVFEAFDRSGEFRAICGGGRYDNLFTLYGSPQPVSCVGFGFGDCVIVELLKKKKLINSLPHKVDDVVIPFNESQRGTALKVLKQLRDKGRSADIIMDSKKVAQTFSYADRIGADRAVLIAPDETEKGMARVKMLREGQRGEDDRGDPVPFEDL
As to the kind of experiment: Leishmania infantum Histidine tRNA synthetase (LdHisRS). The class given is functional.

The target of assay [5] is T3, Coenzyme A biosynthesis bifunctional protein CoaBC (Mycobacterium tuberculosis (strain ATCC 25618 / H37Rv), UniProt P9WNZ1).
T3 sequence (P9WNZ1 whole entry): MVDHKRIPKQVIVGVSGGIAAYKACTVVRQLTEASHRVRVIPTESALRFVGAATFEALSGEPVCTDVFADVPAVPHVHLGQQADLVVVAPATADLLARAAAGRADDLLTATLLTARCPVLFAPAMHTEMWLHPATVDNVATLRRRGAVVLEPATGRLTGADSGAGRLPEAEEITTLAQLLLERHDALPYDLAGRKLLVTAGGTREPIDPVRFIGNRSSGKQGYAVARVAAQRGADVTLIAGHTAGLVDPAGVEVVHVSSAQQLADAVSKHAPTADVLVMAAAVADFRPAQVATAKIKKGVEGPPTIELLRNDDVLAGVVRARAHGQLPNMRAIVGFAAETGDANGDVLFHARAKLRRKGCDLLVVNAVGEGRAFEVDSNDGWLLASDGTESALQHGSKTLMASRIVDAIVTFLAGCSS
As to the kind of experiment: Biomol Green assay for MtCoaBC inhibitor, OD650 read. In kind it is functional.

Assay [6] relates to Plasmodium falciparum. In words: Calibr Malaria Delayed Death Assay SOP. In kind it is functional, organism-based. Conditions: for IC50: Plasmodium falciparum.
The nature of assay [7]: microbe, parasite or virus in culture. Conditions: Mycobacterium tuberculosis, 72 h, read-out: pIC50 (converted).
A short description of assay [8]: microbe, parasite or virus in culture. The conditions noted are these: Mycobacterium tuberculosis, 96 h, read-out: pIC50 (converted).
The nature of assay [9]: In vitro enzyme assay to detect hydrolysis of chlorophenol red-beta-D-[…] directly proportional to the number of Toxoplasma stably expressing beta-galactosidase. In kind it is functional, organism-based, Toxoplasma gondii. Conditions: Toxoplasma gondii.
Assay [10] has as its target ClpP1P2 (Mycobacterium tuberculosis (strain ATCC 25618 / H37Rv), UniProt P9WPC3+P9WPC5). As to the kind of experiment: in vitro assay to detect presence of AMC directly proportional to the activity of ClpP1P2. GHDDI collaboration. In kind it is functional.
Assay [11] concerns Mycobacterium tuberculosis. In words: Cornell M. t heat shock assay. In kind it is functional, organism-based. Conditions: Mycobacterium tuberculosis.

The structures appear in SMILES notation. “And” between values parts separate entries of the source, which are not always exact repeats. Equal entries are not always repeated.

Chain of Polyketide synthase Pks13 (I6X8D2 whole entry): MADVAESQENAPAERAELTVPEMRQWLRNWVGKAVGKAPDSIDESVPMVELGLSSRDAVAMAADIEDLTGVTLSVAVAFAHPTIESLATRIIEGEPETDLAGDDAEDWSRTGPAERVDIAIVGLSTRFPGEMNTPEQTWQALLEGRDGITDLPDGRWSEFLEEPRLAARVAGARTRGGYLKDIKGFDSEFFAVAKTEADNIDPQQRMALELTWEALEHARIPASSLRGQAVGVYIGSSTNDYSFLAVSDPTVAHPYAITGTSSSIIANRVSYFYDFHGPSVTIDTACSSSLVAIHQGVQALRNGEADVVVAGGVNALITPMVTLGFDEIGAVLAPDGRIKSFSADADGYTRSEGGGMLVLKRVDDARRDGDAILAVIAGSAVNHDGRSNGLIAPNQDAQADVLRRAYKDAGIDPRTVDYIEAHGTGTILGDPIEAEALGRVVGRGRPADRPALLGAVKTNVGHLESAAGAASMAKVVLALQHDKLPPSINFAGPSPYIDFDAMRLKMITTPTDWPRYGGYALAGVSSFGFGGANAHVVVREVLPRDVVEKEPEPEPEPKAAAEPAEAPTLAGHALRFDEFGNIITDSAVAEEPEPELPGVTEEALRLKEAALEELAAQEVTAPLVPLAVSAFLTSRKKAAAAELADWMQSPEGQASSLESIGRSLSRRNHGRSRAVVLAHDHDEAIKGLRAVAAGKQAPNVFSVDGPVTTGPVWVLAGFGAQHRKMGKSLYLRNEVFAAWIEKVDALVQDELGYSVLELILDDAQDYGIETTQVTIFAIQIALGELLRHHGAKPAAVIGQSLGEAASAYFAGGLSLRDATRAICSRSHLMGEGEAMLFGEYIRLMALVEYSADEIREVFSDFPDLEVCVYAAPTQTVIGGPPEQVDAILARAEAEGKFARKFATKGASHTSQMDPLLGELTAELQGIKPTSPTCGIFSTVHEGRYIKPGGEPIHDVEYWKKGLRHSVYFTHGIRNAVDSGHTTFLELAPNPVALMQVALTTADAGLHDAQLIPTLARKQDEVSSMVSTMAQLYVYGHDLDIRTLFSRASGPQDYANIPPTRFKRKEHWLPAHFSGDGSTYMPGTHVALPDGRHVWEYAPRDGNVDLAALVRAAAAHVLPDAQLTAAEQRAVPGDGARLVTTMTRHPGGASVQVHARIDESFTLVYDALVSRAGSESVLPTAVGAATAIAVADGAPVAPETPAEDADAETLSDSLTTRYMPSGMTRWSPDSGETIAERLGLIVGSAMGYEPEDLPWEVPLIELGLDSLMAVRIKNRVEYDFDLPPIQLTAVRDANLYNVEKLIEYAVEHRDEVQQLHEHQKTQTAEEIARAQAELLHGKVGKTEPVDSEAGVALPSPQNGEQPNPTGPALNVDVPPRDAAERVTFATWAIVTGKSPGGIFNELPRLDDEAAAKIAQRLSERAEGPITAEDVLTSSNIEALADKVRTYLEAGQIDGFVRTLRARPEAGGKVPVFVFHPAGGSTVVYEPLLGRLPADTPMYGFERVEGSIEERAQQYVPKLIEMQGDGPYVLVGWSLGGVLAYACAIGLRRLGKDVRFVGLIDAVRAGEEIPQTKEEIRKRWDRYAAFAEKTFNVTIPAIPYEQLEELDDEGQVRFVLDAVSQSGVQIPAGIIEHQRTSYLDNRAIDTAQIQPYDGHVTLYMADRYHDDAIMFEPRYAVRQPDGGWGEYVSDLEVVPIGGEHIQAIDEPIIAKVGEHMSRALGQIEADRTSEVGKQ
Chain of ClpP1P2 (P9WPC5 whole entry): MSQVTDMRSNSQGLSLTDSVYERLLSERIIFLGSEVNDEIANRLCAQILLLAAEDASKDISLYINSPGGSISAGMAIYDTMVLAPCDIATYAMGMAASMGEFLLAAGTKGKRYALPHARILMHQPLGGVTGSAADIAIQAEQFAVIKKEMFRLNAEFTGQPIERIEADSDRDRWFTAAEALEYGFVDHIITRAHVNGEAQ
Chain of ClpP1P2 (P9WPC3 whole entry): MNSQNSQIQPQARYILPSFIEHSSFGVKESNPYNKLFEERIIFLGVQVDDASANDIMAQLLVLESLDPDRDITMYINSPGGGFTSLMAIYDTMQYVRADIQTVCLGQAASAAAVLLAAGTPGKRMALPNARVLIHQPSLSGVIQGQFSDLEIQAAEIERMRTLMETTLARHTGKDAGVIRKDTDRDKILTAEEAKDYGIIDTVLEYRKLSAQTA

With `c1ccc(N2CCOCC3(CCCN(c4nccs4)C3)C2)nc1` (stereo not drawn), the IC50 in assay [1] and in [2] was > 100 µM in each case.
Take `Cc1cnc(N2CCC3(CCN(CC4CC4)C3=O)CC2)nc1`: the IC50 in assay [1] and in [2] was > 100 µM each time.
On to `Cn1cc(NC(=O)N2CCCC2c2ccccn2)ccc1=O` (stereo not drawn), for which the IC50 in assay [3] was > 50.1 µM; in [4], 2.71 µM and 1.57 µM and 2.82 µM and 1.51 µM; in assay [2] it was 9.32 µM and 9.24 µM.
For `CCCn1cc(NC(=O)c2ccncc2)ccc1=O`, the IC50 was > 50.1 µM in assay [3]; 3.64 µM and 3.18 µM in assay [4]; 5.29 µM and 4 µM in [2].
Consider `CCCn1cc(NC(=O)c2ccc(S(=O)(=O)CC)cc2)ccc1=O`, for which the IC50 in assay [3] is > 50.1 µM; in assay [4], 1.47 µM and 1.05 µM and 2.81 µM and 2.06 µM; in [2], 2.37 µM and 2.75 µM.
In the case of `CCCn1cc(NC(=O)c2ccc(S(C)(=O)=O)cc2)ccc1=O`, the IC50 in assay [3] was > 50.1 µM; in assay [4], 1.71 µM and 0.847 µM and 0.944 µM and 1.37 µM; in [2], 21.5 µM and 19.6 µM.
For `COc1ccc(CNC(=O)Nc2ccc(=O)n(C)c2)cc1`, the IC50 was > 50.1 µM in [3]; 1.74 µM and 2.25 µM and 1.76 µM and 2.08 µM in [4]; 5.8 µM and 5.68 µM in [2].
`Cn1cc(NC(=O)NCc2ccoc2)ccc1=O`: the IC50 in [3] was > 50.1 µM; in assay [4], 3.44 µM and 3.04 µM; in assay [2] it was 7.29 µM and 8.84 µM.
As to `CN(Cc1ccsc1)C(=O)Nc1ccc(=O)n(C)c1`, the IC50 was > 50.1 µM in assay [3]; 4.2 µM and 4.05 µM in assay [4]; 4.99 µM and 3.42 µM in [2].
As for `Cn1cc(NC(=O)NCc2ccsc2)ccc1=O`, the IC50 was > 50.1 µM in assay [3]; 2.07 µM and 2.41 µM and 2.32 µM and 2.42 µM in assay [4]; 4.72 µM and 5.06 µM in assay [2].
Consider `Cc1cc(=O)n(C)cc1NC(=O)NCc1cccc(F)c1`, for which the IC50 was > 50.1 µM in [3]; 6.8 µM and 6.63 µM in assay [4]; 9.43 µM and 9.23 µM in [2].
For the molecule `Cc1cc(=O)n(C)cc1NC(=O)Cc1cccc(Cl)c1`, the IC50 was > 50.1 µM in [3]; 5 µM and 6.56 µM in [4]; 4.77 µM in [2].
For `Cc1cc(=O)n(C)cc1NC(=O)Cc1cc(F)ccc1F`, the IC50 in assay [3] is > 50.1 µM; in assay [4] it was 1.69 µM and 2.09 µM and 0.814 µM and 0.806 µM; in assay [2], 21.1 µM.
With `Cc1cc(=O)n(C)cc1NC(=O)Cc1cccc(F)c1`, the IC50 in assay [3] was > 50.1 µM; in [4] it was 7.6 µM and 8.67 µM; in assay [2] it was 6.21 µM.
One may read the pIC50 as the IC50 on a negative log10 scale, so that one unit is a factor of ten. Lower therefore signals a high IC50. `NCC1Cc2cc(-c3nccc(N4CCC(O)CC4)n3)cc(Cl)c2O1` (stereo not drawn): the IC50 in assay [5] was > 30.2 µM; in assay [6], 0.545 µM; in assay [4] it was 20.9 µM and 21 µM; in assay [2], 48.1 µM and 22.3 µM. For the same molecule, the pIC50 in [6] was 6.303.
With `CNc1cc(-c2ccccc2CN)c2cc[nH]c2n1`, the IC50 was > 30.2 µM in assay [5]; 10.6 µM and 10.1 µM in assay [4]; 22.6 µM and 37.8 µM in assay [2].
As to `O=C(NCc1cnn2cccnc12)c1cccc(CC2CCNCC2)c1`, the IC50 was 41.5 µM in [7]; 17.6 µM and 18.9 µM in assay [4]; 39.3 µM and 21.3 µM in assay [2]; 45.6 µM in assay [8].
On to `NCC1CCN(C2CCN(c3ccc(-c4ccco4)cc3)CC2)C1` (stereo not drawn), for which the IC50 in [7] is 11.7 µM; in assay [6], 0.343 µM; in assay [4], 25.6 µM and 22.1 µM; in assay [2], 25.1 µM and 18.7 µM; in assay [9] it was 3.86 µM. In addition, the pIC50 in [6] is 6.504.
Consider `COc1cccn(CC(=O)N2CCC3(CCNCC3)C2)c1=O`, for which the IC50 in assay [3] is > 50.1 µM; in [4], 3.66 µM and 3.72 µM; in assay [2], 6.27 µM and 15.2 µM.
As for `NCC1Cc2cc(-c3nccc(N4CCC(O)CC4)n3)cc(F)c2O1` (stereo not drawn), the IC50 in assay [5] was > 30.2 µM; in assay [6] it was 0.569 µM; in assay [4] it was 31.2 µM and 28.1 µM; in assay [2], 20.1 µM and 18.7 µM. In assay [6], this molecule showed a pIC50 of 6.277.
`NC1CCN(C2CCN(c3ccc(-c4ccco4)cc3)CC2)CC1`: the IC50 is 23 µM and 22.9 µM in [4]; 34.3 µM and 40.4 µM in [2].
On to `OCCNc1cc(-c2nccnc2N2CCCC2)c2cc[nH]c2n1`, for which the IC50 in assay [4] is 16.2 µM and 14.9 µM; in [2], 32.6 µM and 31 µM.
With `COc1cccn(CC(=O)N2CCCC3(CCCCC3)C2)c1=O`, the IC50 in assay [4] was 8.99 µM and 8.08 µM; in assay [2] it was 4.24 µM and 4.44 µM.
`COc1cccn(CC(=O)N2CCCC3(CCCO3)CC2)c1=O` (stereo not drawn): the IC50 in [4] and in assay [2] was > 100 µM each time.
With `CNc1cc(-c2cccc(CN)c2)c2cc[nH]c2n1`, the IC50 in assay [4] is 25.1 µM and 23.5 µM; in assay [2] it was 27.7 µM and 26.3 µM; in assay [10], > 100 µM.
Take `Cc1nc(C)n(CC2CCCN2Cc2nc(C)c3ccccc3n2)n1` (stereo not drawn): the IC50 was 31 µM and 34.3 µM in assay [4]; 30.1 µM and 20 µM in [2].
On to `Cc1cc(C)n(CC2CCCN2Cc2nc(N)c3ccccc3n2)n1` (stereo not drawn), for which the IC50 in [11] and in assay [2] was > 100 µM throughout.
As for `Cc1nc(CN(C)CC2CCCN2c2cccnn2)nc2ccccc12` (stereo not drawn), the IC50 in [7] was 10.8 µM; in [4], 11.8 µM and 14.8 µM; in [2], 30.3 µM and 27.2 µM; in [8] it was > 50.1 µM.
As for `Cl.Fc1ccc(F)c(CN2CCC(c3cc4ncccc4cn3)CC2)c1`, the IC50 in assay [7] was 27.2 µM; in assay [6] it was 0.505 µM; in assay [11], > 100 µM; in [2], 58.4 µM and 43.6 µM; in assay [8] it was > 50.1 µM. Further, in [6], the pIC50 was determined as 6.54.
For `Cl.Fc1cccc(CN2CCC(c3cc4ncccc4cn3)CC2)c1F`, the pIC50 in assay [6] is on record as 6.161. The IC50 was 0.897 µM in assay [6]; 43.3 µM in assay [11]; 28.5 µM and 56.4 µM in [2].
`COc1ccc(C)cc1CN1CCC(c2cc3ncccc3cn2)CC1.Cl`: the IC50 in assay [7] is 19.4 µM; in assay [6], 0.264 µM; in assay [4], 17.6 µM and 23.6 µM; in [2], 14.5 µM and 14.6 µM; in [8], 25.8 µM. Moreover, in assay [6], the pIC50 is reported as 6.624.
In the case of `c1ccc(N2CCCC3(COCCN(c4nccs4)C3)C2)nc1` (stereo not drawn), the IC50 in assay [5] is > 30.2 µM; in [2], 73.9 µM and 71.8 µM.
